Calls of active or inactive are those of the source.
Columns and labels:
[1] = biological target: T1, Corticotropin-releasing factor receptor 2/Corticotropin-releasing factor-binding protein (Homo sapiens, UniProt P24387+Q13324); assay: activators of CRF receptor 2 with binding protein – uHTS hits, confirmation (AID 602473); type: functional; settings: read-out: EC50_Mean
T1 sequence (Q13324 whole entry): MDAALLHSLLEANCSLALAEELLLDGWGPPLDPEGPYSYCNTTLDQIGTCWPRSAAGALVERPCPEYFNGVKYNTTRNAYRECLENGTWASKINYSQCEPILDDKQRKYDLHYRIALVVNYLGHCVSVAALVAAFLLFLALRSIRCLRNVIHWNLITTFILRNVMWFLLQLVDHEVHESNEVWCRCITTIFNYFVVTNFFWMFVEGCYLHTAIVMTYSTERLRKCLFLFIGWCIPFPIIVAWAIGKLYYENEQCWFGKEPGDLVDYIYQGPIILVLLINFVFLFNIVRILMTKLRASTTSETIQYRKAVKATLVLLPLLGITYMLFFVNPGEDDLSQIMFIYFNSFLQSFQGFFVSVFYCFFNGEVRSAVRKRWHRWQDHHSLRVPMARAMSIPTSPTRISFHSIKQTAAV
T1 sequence (P24387 whole entry): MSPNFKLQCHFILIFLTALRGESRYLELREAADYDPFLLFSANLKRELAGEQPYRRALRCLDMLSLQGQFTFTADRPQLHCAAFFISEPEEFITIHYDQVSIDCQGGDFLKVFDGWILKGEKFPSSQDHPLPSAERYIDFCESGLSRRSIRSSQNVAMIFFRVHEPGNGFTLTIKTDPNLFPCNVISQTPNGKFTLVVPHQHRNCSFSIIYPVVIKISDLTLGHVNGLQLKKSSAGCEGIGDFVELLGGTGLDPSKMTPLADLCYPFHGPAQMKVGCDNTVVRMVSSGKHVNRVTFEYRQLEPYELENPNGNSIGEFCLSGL

[2] = biological target: Beta-galactosidase (Escherichia coli, UniProt Q8VNN2); assay: Dose response counterscreen for EBI2 assay utilizing the enzyme, b-galactosidase.; type: functional
[3] = biological target: T1, Corticotropin-releasing factor receptor 2/Corticotropin-releasing factor-binding protein; assay: Dose Response confirmation of uHTS hits for small molecule antagonists of the CRF-binding protein and CRF-R2 receptor complex.; type: functional; settings: read-out: IC50_Mean
[4] = cells; type: functional, cell-based
[5] = biological target: T2, Nuclear receptor subfamily 0 group B member 1 (Homo sapiens, UniProt P51843); type: functional, cell-based;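 further: HEK293T cells transfected with SF-1 and DAX-1 plus StAR promoter luciferase reporter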
T2 sequence (P51843 whole entry): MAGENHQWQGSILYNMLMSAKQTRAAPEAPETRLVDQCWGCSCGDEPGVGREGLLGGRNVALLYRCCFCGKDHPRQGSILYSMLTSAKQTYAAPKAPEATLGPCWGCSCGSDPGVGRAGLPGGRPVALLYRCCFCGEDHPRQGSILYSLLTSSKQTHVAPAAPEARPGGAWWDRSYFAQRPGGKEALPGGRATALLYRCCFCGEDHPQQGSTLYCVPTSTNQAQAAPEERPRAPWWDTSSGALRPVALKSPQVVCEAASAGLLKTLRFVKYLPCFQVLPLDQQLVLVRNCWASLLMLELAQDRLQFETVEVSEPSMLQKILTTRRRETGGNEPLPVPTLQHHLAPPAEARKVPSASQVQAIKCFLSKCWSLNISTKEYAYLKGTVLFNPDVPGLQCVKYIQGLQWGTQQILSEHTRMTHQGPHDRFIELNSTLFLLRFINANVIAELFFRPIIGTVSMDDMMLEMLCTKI

[6] = biological target: T3, Long-chain-fatty-acid--AMP ligase FadD28 (Mycobacterium tuberculosis, UniProt P9WQ59); assay: Fluorescence polarization aasay to screen for inhibitors that compete for the binding of FadD28 to a bisubstrate Measured in Biochemical System Using Plate Reader - 2147-01_Inhibitor_Dose_CherryPick_Activity.; type: functional, Mycobacterium tuberculosis H37Rv
T3 sequence (P9WQ59 whole entry): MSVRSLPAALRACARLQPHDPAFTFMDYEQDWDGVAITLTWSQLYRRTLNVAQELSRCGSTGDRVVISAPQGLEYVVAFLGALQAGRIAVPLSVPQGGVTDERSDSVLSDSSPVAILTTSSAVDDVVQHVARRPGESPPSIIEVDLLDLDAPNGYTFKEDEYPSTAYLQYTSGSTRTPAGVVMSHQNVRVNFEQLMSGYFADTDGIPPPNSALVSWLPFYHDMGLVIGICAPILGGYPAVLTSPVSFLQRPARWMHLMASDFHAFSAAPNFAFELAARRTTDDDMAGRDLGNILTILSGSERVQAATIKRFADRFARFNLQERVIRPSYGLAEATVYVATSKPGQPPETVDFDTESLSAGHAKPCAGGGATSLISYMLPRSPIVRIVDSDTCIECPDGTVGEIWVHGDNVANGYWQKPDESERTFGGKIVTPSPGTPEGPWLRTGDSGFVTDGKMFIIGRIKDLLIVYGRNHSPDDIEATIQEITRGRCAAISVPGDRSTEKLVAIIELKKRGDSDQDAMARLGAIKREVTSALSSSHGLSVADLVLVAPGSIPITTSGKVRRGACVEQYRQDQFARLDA

[7] = biological target: T4, Galanin receptor type 3 (Homo sapiens, UniProt O60755); assay: Fluorescence-based cell-based primary high throughput dose response assay to identify antagonists of the Galanin Receptor 3 (GalR3).; type: functional
T4 sequence (O60755 whole entry): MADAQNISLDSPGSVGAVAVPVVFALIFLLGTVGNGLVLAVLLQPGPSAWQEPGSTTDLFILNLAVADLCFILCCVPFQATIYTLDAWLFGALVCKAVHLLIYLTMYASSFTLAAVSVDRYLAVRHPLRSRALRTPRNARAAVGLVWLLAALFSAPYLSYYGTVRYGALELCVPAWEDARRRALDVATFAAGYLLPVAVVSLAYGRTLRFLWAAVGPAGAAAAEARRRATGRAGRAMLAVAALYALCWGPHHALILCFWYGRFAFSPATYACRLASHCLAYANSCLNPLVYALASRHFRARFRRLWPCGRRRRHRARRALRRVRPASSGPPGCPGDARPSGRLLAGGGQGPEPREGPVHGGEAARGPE

[8] = cells; type: functional, cell-based; settings: HEK-CNG
[9] = loss of viability in HepG2 cells – cell-based, CellTiter-Glo, cherry-picked, cytotoxicity control for Shn3 inhibitor project, dose response (AID 624134); type: functional
[10] = HEK-293T viability loss after treatment – luminescence, T-cell screen hits, cytotoxicity control for TCR NF-kB inhibitor project, dose response (AID 489026); type: functional, cell-based;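 further: cells exposed to compound about 14 hours before the viability readout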
[11] = reduction of Shn3 3'UTR-driven luciferase in osteoblasts – cell-based, Clone20 osteoblasts, firefly luciferase, cherry-picked, dose response (AID 624132); type: functional;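 further: firefly luciferase luminescence from reporter carrying the Shn3 3'UTR in osteoblasts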
[12] = non-specific 3'UTR reporter inhibition in Clone20-Shn3RL – cell-based, Renilla luciferase, cherry-picked, counter-screen for Shn3 inhibitor project, dose response (AID 624133); type: functional

Chain of Beta-galactosidase (Q8VNN2 whole entry): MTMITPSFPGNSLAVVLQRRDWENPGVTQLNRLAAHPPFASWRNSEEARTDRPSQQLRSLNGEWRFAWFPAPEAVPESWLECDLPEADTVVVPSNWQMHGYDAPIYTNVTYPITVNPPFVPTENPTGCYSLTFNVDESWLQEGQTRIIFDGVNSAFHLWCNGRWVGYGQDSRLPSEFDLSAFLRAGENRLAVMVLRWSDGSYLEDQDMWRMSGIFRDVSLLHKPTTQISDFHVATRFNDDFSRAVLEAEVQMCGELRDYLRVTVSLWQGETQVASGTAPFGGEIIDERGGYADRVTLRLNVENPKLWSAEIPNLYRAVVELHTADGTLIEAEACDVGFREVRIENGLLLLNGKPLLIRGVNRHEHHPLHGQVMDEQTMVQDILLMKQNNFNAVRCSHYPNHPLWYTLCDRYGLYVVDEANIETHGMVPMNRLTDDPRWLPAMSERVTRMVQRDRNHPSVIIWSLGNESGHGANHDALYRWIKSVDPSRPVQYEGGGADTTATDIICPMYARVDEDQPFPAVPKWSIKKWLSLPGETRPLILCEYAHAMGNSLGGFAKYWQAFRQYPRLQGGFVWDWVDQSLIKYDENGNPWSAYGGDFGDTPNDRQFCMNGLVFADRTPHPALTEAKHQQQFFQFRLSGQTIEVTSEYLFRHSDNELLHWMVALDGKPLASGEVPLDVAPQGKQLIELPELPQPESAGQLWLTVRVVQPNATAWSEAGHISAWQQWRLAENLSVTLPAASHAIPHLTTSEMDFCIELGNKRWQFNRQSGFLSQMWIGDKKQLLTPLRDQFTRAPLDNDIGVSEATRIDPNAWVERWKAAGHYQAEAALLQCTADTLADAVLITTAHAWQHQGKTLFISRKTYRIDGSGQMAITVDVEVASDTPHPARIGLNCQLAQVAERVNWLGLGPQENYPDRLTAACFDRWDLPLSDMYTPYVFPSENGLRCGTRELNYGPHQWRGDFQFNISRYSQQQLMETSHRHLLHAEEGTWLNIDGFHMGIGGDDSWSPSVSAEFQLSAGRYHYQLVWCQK

COc1ccc(N2CCN(C(=O)c3cc(=O)c4cc(C)c(C)cc4o3)CC2)cc1
EC50 [1]: > 53 µM (inactive) | IC50 [2]: > 80 µM (inactive) | IC50 [3]: > 47.1 µM (inactive)

S=C(NCCc1ccccc1)Nc1ncccn1
IC50 [4]: > 67.5 µM (inactive) | IC50 [5]: > 67.5 µM (inactive)

COc1ccc(/C=C/C(=O)N2CCN(S(=O)(=O)/C=C/c3ccccc3)CC2)cc1OC
IC50 [2]: > 80 µM (inactive)

C/C(Cl)=C/Cn1c(SC(C)C)nc2c1c(=O)[nH]c(=O)n2C
AC50 [6]: > 100 µM (inactive)

COc1ccc(-n2c(C)cc(C(=O)COC(=O)Cn3cnc4ccccc43)c2C)cc1
IC50 [7]: 0.762 µM (active) | EC50 [8]: > 29.9 µM (inactive)

Cc1ccc(Oc2ccc(OCC(=O)Nc3ccncc3)cc2)cc1
IC50 [7]: 0.158 µM (active) | AC50 [9]: 4.76 µM (active) | IC50 [10]: > 80 µM (inactive) | EC50 [8]: > 29.9 µM (inactive) | AC50 [11]: 1.55 µM (active) | AC50 [12]: < 1 µM (active)

Reference: ChEMBL document CHEMBL1201862, “PubChem BioAssay data set” (2004)
